Source: PMC7179112, “Antimicrobial, Antioxidant, and Anticancer Activities of Some Novel Isoxazole Ring Containing Chalcone and Dihydropyrazole Derivatives” (Molecules, 2020)
Converted amounts (≈) assume the structure as drawn.

Legend:
Pseudomonas aeruginosa = assay: Antibacterial activity, serial tube dilution method; format: cell-based; conditions: for MIC: Pseudomonas aeruginosa, Gram-negative, serial tube dilution, read-out: MIC P aeruginosa
Protocol: (§1) The target chalcones (17–31) and pyrazolines (32–46) were tested for their antimicrobial activities by serial tube dilution method against two types of bacterial and fungal strains (Table 1 and Table 2). The bacterial strains used for the testing, including Gram-positive Staphylococcus aureus and Gram-negative Pseudomonas aeruginosa, whereas the fungal strains employed were Aspergillus niger and Candida tropicalis.
(§2) The antibacterial and antifungal activity of the novel chalcones (17 to 31) and dihydropyrazoles (32 to 46) against the selected bacterial and fungal strains was assessed by following the procedure described in our previous paper.

Staphylococcus aureus = assay: as above; format: cell-based; conditions: for MIC: Staphylococcus aureus, Gram-positive, serial tube dilution, read-out: MIC S aureus
Protocol: as §1, §2

[1] = system: bacterial and fungal strains (S. aureus, P. aeruginosa, A. niger, C. tropicalis); assay: Antibacterial and antifungal activity (all strains); format: cell-based; conditions: range over bacterial and fungal strains
Protocol: as §1, §2

[2] = DPPH free radical scavenging assay; conditions: antioxidant activity; average of three independent experiments
Protocol: The antioxidant activity of all 30 compounds was assessed using 1,1-diphenyl-2-picrylhydrazine (DPPH) free radical scavenging assay and the results are the average of three independent experiments (Table 3). Gallic acid was employed as a positive control. […] In the disubstituted series (20–25), compound 25 with substitutions at position 3 and 5 on the phenyl ring gave the highest activity of 9 µg/mL.
The purpose of this study was to evaluate the antioxidant activity of chalcones and pyrazolines using the DPPH free radical assay. The percentage of antioxidant activity (AA%) of all the compounds was assessed by the DPPH free radical assay. The measurement of the DPPH radical scavenging activity was performed according to methodology described by Brand-Williams et al. The samples were reacted with the stable DPPH radical in an ethanol solution. A 0.1 mM solution of DPPH was prepared by dissolving DPPH in methanol. Gallic acid was taken as a reference standard and different concentrations of test samples (5–100 µg/mL) and standard (1.0, 2.5, and 5.0 µg/mL) were prepared using methanol. One milliliter of 0.1 mM DPPH solution was added to 3 mL of all concentrations of test samples and standard separately. These mixtures were kept in dark for about 30 min and the absorbance was measured at 517 nm. The capability to scavenge the DPPH radical was calculated using the formula:(1) DPPH scavanged (%)= Absorbance of control−Absorbance of sample/Absorbance of control∗100 when DPPH reacted with an antioxidant compound and was reduced, the change in color (from deep violet to light yellow) was read [Absorbance (Abs)] at 517 nm after […] of reaction using a UV-VIS spectrophotometer.

[3] = system: prostate cancer cell line, DU-145; assay: MTT assay anticancer activity; format: cell-based; conditions: Homo sapiens, MTT assay, mean ± SD (n = 3)
Protocol: All the 30 compounds were evaluated for their anticancer potency against the prostate cancer cell line, DU-145, employing colorimetric tetrazolium dye (MTT) assay. […] Among the disubstituted series 20–25, substitution at position 3 and 4 (compound 24) produced the best activity but was lower than the standard. […] Similar phenomena can be seen among the dihydropyrazole series.
The in vitro anticancer activity of chalcones (17 to 31) and dihydropyrazoles (32 to 46) was evaluated by the Mosmann’s MTT assay as described previously.

Candida tropicalis = assay: Antifungal activity, serial tube dilution method; format: cell-based; conditions: read-out: MIC C tropicalis
Protocol: as §1, §2

Aspergillus niger = assay: Antifungal activity, serial tube dilution method; format: cell-based
Protocol: as §1, §2

Human Normal Cells (L02) = assay: MTT assay toxicity on normal cells; format: cell-based
[4] = system: Aspergillus niger and Candida tropicalis; assay: Antifungal activity (strain not named); format: cell-based
Protocol: as §1, §2

[5] = system: Staphylococcus aureus and Pseudomonas aeruginosa; assay: Antibacterial activity (strain not named); format: cell-based; conditions: text/figure value, strain not named
Protocol: as §1, §2

[6] = text/figure value, strain not named

MIC (Pseudomonas aeruginosa) [µg/mL]	MIC (Staphylococcus aureus) [µg/mL]	MIC [1] [µg/mL]	DPPH assay IC50 [2] [µg/mL]	IC50 [3] [µg/mL]	MIC (Candida tropicalis) [µg/mL]	MIC (Aspergillus niger) [µg/mL]	MIC [4, 6] [µg/mL]	MIC [5] [µg/mL]	IC50 [4] [µg/mL]	antifungal MIC [4, 6] [µg/mL]	Structure (SMILES)	IC50 (Human Normal Cells (L02)) [µg/mL]	fold improvement in the antibacterial activity compared to compound 38 (Pseudomonas aeruginosa; second of two values, P aeruginosa inferred from Table 2) [fold]	fold improvement in the antibacterial activity compared to compound 38 (Staphylococcus aureus; first of two values, S aureus inferred from Table 2) [fold]
128 (≈ 558 µM)	128 (≈ 558 µM)	64 to 256 (≈ 279 to 1120 µM)	38 ± 2	20 ± 1 (≈ 87.2 µM)	256 (≈ 1120 µM)	256 (≈ 1120 µM)	–	–	–	–	COc1cccc(/C=C/C(=O)c2ccno2)c1 [Compound 18]	> 40	–	–
256 (≈ 987 µM)	256 (≈ 987 µM)	64 to 256 (≈ 247 to 987 µM)	9 ± 1	12 ± 1 (≈ 46.3 µM)	512 (≈ 1970 µM)	256 (≈ 987 µM)	–	–	–	–	COc1cc(/C=C/C(=O)c2ccno2)cc(OC)c1 [Compound 25]	> 40	–	–
64 (≈ 221 µM)	64 (≈ 221 µM)	64 to 256 (≈ 221 to 885 µM)	6 ± 1	10 ± 2 (≈ 34.6 µM)	128 (≈ 442 µM)	128 (≈ 442 µM)	–	–	–	–	COc1ccc(/C=C/C(=O)c2ccno2)c(OC)c1OC [Compound 26]	> 40	–	–
128 (≈ 442 µM)	64 (≈ 221 µM)	64 to 256 (≈ 221 to 885 µM)	8 ± 2	8 ± 2 (≈ 27.7 µM)	256 (≈ 885 µM)	128 (≈ 442 µM)	–	–	–	–	COc1cc(/C=C/C(=O)c2ccno2)cc(OC)c1OC [Compound 29]	> 40	–	–
4 (≈ 11.5 µM)	4 (≈ 11.5 µM)	–	6 ± 1	21 ± 2 (≈ 60.6 µM)	2 (≈ 5.77 µM)	2 (≈ 5.77 µM)	2 (≈ 5.77 µM)	4 (≈ 11.5 µM)	–	–	COc1cc(OC)c(C2CC(c3ccno3)=NN2C(N)=O)c(OC)c1 (centres unmarked) [Compound 43]	> 40	4	8
8 (≈ 22.8 µM)	8 (≈ 22.8 µM)	–	62 ± 1	12 ± 2 (≈ 34.2 µM)	0.5 (≈ 1.43 µM)	0.5 (≈ 1.43 µM)	–	8 (≈ 22.8 µM)	2 ± 1 (≈ 5.7 µM)	0.5	COc1cc(Cl)c(C2CC(c3ccno3)=NN2C(N)=O)c(OC)c1 (centres unmarked) [Compound 46]	> 40	–	–
